Experimental data reported in patent US10870627B2, “Salt of quinazoline derivative, preparation method therefor and application thereof” (SHANGHAI PHARMACEUTICALS HOLDING CO., LTD., priority 2016, dated 2020).

How the values were obtained:
[1] = Solubility determined by visual inspection; format: physicochemical; settings: 20° C.
Description: The solubility was determined as follows: a certain amount of the sample was weighed and the solvent was added thereto in portions with stirring or ultrasonication to accelerate dissolution; the amount of the consumed solvent was recorded once the sample was dissolved. […] A certain volume of the solution was taken, followed by filtration, concentration, dissolved with a certain volume of other suitable solvents and subjected to HPLC measurement to obtain accurate data of the solubility.

[2] = Comparison of absorption in rats after intragastric administration of free base and salt (plasma pharmacokinetics); format: in vivo, SD rats; settings: for AUC (0-t) / MRT (0-T) / Tmax / t1/2 / Cmax: SD rats, 20 μmol/kg, intragastric administration, plasma
Description: The blood sample was centrifuged at 8000 RPM for 5 minutes, followed by the isolation of the upper plasma. […] 200 μL of the supernatant was taken and centrifuged again for 10 minutes. 50 μL of the supernatant was injected in a 96-well plate. The plasma drug concentration was determined by LC/MS/MS, and the corresponding pharmacokinetic parameters were calculated.

[3] = Dynamic vapor sorption (DVS), isothermal absorption analysis; format: physicochemical
Description: In the present invention, according to the common knowledge in the art, the amount of water absorption obtained from the dynamic vapor sorption (DVS) pattern is expressed in percentage by weight.
The isothermal absorption analysis (DVS) data was collected from TA Instruments Q5000 TGA. The software for instrument control was Thermal Advantage and software for analysis was Universal Analysis. 1-10 mg of the sample was generally placed in a platinum crucible, and the weight change of the sample during the relative humidity changing from 20% to 80% was recorded by the TA software. Depending on the specifics of the sample, different steps of sample adsorption and desorption were also involved.

[4] = Water solubility at 20° C. determined by HPLC; format: physicochemical
[5] = relative humidity range of 50-80%

Which results are given for `C=C(F)C(=O)Nc1cc2c(Nc3ccc(F)c(Cl)c3)ncnc2cc1OCCCN1CCOCC1.O=S(=O)(O)O`?
visual solubility in water [1]: 1000 to 2000 µg/mL; AUC (0-t) [2]: 591.00 ± 29.76 µM·min; MRT (0-T) [2]: 5.7252 ± 0.7072 h; Tmax [2]: 1.167 ± 0.2887 h; t1/2 [2]: 3.8468 ± 2.704 h; Cmax ([2]; listed as monosulfate): 1660 ± 270 nM; hygroscopicity, in words [3]: fairly hygroscopic

Which “visual solubility in water” value [1] does the source give for `C=C(F)C(=O)Nc1cc2c(Nc3ccc(F)c(Cl)c3)ncnc2cc1OCCCN1CCOCC1.O=S(=O)(O)O.O=S(=O)(O)O` [disulfate of the quinazoline derivative] here?
Its value is 910 to 1000 µg/mL.

Which “water solubility at 20° C. determined by HPLC” value [4] does the source give for `C=C(F)C(=O)Nc1cc2c(Nc3ccc(F)c(Cl)c3)ncnc2cc1OCCCN1CCOCC1.Cl.O` here?
The value was 51.5 µg/mL.

And the “AUC (0-t)” value [2]?
The value was 507.89 ± 66.81 µM·min.

What about the “MRT (0-T)” value [2] of the same molecule?
Its value is 6.8127 ± 1.364 h.

And the Tmax [2]?
Its Tmax is 1.167 ± 0.2887 h.

And the t1/2 [2]?
Its t1/2 is 4.5078 ± 1.56 h.

What about the Cmax ([2]; listed as monohydrochloride monohydrate) of the same molecule?
Its Cmax is 980 ± 60 nM.

What about the “AUC (0-t) and Cmax, comparison in words” value ([2]; rats, oral, same dose, free base and 6 salts) of the same molecule?
The value was “relatively low”.

Which “weight change (water absorbed) by DVS” value ([3]; relative humidity range of 0-80%) does the source give for `C=C(F)C(=O)Nc1cc2c(Nc3ccc(F)c(Cl)c3)ncnc2cc1OCCCN1CCOCC1.O.O.O=C(O)CC(O)(CC(=O)O)C(=O)O` [crystal form 5 of the dihydrate] here?
Its value is 0.4%.

What does the source list for `C=C(F)C(=O)Nc1cc2c(Nc3ccc(F)c(Cl)c3)ncnc2cc1OCCCN1CCOCC1.O.O.O.O=C(O)CC(O)(CC(=O)O)C(=O)O` [crystal form 10 of the trihydrate]?
water eliminated by DVS ([3]; below a relative humidity of 50%): 3.5%; stability of the hydrate (DVS), in words [3, 5]: stable; weight change (water absorbed) by DVS [3, 5]: 1.1%

Which results are given for `C=C(F)C(=O)Nc1cc2c(Nc3ccc(F)c(Cl)c3)ncnc2cc1OCCCN1CCOCC1.O.O.O=C(O)CC(O)(CC(=O)O)C(=O)O` [crystal form 11 of the dihydrate]?
stability of the hydrate (DVS), in words [3, 5]: stable; weight change (water absorbed) by DVS [3, 5]: 5.3%
